Test results published in ChEMBL document CHEMBL4507279, “Data for DCP probe BI-9627” (2021).

Columns and labels:
Details in all cases: Compound concentration 1000.0 nM
[1] = target: NT-3 growth factor receptor (Homo sapiens) (UniProt Q16288)
[2] = target: Serine/threonine-protein kinase pim-3 (Homo sapiens) (UniProt Q86V86)
[3] = target: Tyrosine-protein kinase receptor Tie-1 (Homo sapiens) (UniProt P35590)
[4] = system: Hepatocyte growth factor receptor (Homo sapiens), P08581 [Y1235D]
[5] = target: Homeodomain-interacting protein kinase 1 (Homo sapiens) (UniProt Q86Z02)
Sequence of Homeodomain-interacting protein kinase 1 (Homo sapiens) (Q86Z02 whole entry, looked up): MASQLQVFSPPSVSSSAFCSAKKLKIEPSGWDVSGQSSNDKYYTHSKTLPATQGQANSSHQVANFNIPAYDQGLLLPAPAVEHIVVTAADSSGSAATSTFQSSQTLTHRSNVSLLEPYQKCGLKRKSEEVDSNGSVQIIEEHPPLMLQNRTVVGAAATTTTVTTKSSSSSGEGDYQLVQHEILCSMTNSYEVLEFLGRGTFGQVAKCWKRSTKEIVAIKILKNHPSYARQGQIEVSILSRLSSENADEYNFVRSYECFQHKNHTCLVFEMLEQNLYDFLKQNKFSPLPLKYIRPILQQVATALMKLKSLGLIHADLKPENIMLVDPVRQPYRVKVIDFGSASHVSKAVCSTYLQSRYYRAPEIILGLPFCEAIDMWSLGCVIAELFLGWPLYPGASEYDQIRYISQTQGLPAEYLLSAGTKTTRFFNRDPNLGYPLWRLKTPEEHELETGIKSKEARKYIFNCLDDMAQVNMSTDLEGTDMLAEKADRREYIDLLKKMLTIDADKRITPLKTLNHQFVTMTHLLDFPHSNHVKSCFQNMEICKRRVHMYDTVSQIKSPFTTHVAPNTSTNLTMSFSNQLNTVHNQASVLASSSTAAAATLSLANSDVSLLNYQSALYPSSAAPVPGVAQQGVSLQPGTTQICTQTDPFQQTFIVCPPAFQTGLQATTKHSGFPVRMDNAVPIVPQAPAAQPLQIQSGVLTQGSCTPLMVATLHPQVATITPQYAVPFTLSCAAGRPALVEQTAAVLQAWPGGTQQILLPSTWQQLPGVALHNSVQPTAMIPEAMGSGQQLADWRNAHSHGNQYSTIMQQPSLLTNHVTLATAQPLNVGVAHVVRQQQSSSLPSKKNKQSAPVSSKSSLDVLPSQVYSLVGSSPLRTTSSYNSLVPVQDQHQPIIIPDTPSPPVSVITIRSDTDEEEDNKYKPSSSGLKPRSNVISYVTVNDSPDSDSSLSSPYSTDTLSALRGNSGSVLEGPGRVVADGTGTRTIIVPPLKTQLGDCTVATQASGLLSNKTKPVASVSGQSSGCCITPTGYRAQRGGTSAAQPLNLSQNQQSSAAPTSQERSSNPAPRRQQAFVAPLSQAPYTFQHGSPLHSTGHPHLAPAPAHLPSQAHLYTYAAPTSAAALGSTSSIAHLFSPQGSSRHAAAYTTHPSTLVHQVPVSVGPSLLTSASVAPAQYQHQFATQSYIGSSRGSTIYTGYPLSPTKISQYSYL

[6] = target: Dual specificity mitogen-activated protein kinase kinase 1 (Homo sapiens) (UniProt Q02750)
Sequence of Dual specificity mitogen-activated protein kinase kinase 1 (Homo sapiens) (Q02750 whole entry): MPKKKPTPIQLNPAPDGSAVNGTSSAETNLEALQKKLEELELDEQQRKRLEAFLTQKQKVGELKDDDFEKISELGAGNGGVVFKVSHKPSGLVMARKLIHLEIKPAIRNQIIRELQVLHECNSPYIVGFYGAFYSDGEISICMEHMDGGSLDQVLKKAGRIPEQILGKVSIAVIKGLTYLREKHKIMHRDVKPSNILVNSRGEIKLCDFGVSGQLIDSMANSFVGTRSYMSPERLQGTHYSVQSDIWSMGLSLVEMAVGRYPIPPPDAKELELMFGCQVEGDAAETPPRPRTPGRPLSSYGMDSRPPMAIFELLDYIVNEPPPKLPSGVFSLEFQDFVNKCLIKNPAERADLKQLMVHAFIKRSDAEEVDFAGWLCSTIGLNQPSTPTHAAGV

[7] = target: TGF-beta receptor type-2 (Homo sapiens) (UniProt P37173)
[8] = target: Tyrosine-protein kinase SYK (Homo sapiens) (UniProt P43405)
[9] = target: Serine/threonine-protein kinase pim-1 (Homo sapiens) (UniProt P11309)
[10] = target: Serine/threonine-protein kinase Nek2 (Homo sapiens) (UniProt P51955)
[11] = target: Tyrosine-protein kinase Srms (Homo sapiens) (UniProt Q9H3Y6)
Sequence of Tyrosine-protein kinase Srms (Homo sapiens) (Q9H3Y6 whole entry): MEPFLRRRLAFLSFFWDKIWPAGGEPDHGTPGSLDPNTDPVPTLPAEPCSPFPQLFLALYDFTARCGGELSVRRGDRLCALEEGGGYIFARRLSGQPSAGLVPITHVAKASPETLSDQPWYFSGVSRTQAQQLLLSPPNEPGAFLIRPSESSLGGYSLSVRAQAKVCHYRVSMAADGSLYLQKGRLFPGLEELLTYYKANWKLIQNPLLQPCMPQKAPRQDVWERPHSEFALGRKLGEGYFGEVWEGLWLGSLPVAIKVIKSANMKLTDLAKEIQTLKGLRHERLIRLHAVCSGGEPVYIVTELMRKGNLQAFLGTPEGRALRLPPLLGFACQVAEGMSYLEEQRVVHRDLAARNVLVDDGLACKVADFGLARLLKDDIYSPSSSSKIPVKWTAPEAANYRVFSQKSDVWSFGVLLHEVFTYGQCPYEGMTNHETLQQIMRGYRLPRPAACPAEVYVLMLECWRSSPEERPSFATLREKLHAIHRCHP

[12] = target: Casein kinase II subunit alpha' (Homo sapiens) (UniProt P19784)
Sequence of Casein kinase II subunit alpha' (Homo sapiens) (P19784 whole entry, looked up): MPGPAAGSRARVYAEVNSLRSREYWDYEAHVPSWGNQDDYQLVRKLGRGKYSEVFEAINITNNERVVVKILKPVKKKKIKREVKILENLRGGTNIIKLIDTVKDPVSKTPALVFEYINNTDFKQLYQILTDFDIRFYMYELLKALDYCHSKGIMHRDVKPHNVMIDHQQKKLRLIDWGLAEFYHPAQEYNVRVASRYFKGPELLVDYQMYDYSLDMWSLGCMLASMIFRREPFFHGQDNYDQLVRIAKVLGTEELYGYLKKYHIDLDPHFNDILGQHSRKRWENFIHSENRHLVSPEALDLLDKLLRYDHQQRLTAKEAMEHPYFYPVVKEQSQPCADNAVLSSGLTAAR

[13] = target: Non-receptor tyrosine-protein kinase TYK2 (Homo sapiens) (UniProt P29597)
[14] = target: BDNF/NT-3 growth factors receptor (Homo sapiens) (UniProt Q16620)
[15] = target: Cyclin-dependent kinase 11A (Homo sapiens) (UniProt Q9UQ88)
[16] = target: Activated CDC42 kinase 1 (Homo sapiens) (UniProt Q07912)
[17] = target: Proto-oncogene tyrosine-protein kinase receptor Ret (Homo sapiens) (UniProt P07949)
Sequence of Proto-oncogene tyrosine-protein kinase receptor Ret (Homo sapiens) (P07949 whole entry): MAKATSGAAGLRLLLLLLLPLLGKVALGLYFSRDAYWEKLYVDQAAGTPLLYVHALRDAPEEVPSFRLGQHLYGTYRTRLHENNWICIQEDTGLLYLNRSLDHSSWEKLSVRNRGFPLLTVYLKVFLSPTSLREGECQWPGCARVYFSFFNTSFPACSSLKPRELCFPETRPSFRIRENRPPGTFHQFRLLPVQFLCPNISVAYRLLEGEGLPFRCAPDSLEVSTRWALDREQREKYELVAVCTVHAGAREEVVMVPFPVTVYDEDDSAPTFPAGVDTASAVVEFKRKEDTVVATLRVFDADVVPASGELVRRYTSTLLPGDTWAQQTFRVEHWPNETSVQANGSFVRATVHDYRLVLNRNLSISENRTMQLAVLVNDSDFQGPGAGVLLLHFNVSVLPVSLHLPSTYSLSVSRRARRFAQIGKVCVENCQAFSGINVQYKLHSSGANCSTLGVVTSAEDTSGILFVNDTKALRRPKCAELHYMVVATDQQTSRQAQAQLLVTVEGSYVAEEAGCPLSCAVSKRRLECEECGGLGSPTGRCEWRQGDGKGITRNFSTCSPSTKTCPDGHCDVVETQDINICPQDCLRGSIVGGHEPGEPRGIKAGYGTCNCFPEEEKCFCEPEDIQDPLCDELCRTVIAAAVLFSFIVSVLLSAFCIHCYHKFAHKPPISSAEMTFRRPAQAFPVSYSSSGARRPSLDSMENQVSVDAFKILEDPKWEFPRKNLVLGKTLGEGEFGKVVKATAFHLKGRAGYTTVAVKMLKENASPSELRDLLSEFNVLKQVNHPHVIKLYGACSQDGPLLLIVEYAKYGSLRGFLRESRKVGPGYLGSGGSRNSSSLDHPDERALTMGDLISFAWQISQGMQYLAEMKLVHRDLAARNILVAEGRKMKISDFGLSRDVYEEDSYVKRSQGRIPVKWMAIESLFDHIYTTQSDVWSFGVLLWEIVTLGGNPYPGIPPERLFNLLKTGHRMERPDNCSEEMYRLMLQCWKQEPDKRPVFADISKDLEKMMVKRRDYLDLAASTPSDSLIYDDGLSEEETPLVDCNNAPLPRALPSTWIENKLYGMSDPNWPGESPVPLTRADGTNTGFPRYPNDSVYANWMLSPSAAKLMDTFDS

[18] = target: Fibroblast growth factor receptor 4 (Homo sapiens) (UniProt P22455)
[19] = target: Casein kinase I isoform alpha (Homo sapiens) (UniProt P48729)
[20] = target: Uncharacterized serine/threonine-protein kinase SBK3 (Homo sapiens) (UniProt P0C264)
[21] = system: Epidermal growth factor receptor (Homo sapiens), P00533 [UNDEFINED MUTATION]
[22] = target: Serine/threonine-protein kinase PLK4 (Homo sapiens) (UniProt O00444)
[23] = target: Cyclin-dependent kinase 9 (Homo sapiens) (UniProt P50750)
[24] = target: Serine/threonine-protein kinase haspin (Homo sapiens) (UniProt Q8TF76)
[25] = target: Phosphatidylinositol 4-kinase beta (Homo sapiens) (UniProt Q9UBF8)
[26] = target: Proto-oncogene tyrosine-protein kinase ROS (Homo sapiens) (UniProt P08922)
[27] = target: ALK tyrosine kinase receptor (Homo sapiens) (UniProt Q9UM73)
[28] = target: Serine/threonine-protein kinase D1 (Homo sapiens) (UniProt Q15139)
Sequence of Serine/threonine-protein kinase D1 (Homo sapiens) (Q15139 whole entry): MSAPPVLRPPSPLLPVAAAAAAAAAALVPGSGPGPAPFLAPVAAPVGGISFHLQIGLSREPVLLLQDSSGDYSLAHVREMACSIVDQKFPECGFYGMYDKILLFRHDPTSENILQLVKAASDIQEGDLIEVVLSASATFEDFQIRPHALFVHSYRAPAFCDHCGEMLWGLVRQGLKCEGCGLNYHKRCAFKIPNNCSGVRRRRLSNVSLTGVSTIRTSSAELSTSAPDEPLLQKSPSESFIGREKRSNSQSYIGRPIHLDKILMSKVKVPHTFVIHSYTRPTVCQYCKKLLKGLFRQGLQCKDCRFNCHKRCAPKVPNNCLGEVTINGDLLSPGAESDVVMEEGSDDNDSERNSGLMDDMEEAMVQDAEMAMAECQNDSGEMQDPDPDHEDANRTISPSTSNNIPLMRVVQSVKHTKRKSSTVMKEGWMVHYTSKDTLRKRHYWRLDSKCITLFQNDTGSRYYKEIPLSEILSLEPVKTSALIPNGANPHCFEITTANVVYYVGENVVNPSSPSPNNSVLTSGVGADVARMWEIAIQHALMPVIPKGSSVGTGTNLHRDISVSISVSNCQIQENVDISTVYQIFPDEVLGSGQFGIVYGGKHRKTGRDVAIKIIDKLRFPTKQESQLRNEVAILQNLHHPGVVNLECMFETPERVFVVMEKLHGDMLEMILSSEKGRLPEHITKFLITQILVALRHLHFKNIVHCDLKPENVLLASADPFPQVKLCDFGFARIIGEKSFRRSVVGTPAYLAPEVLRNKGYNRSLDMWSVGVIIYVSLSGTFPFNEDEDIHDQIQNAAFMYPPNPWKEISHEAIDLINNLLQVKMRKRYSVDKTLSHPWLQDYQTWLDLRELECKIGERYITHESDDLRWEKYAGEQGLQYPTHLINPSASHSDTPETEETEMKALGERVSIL

[29] = target: Serine/threonine-protein kinase NIM1 (Homo sapiens) (UniProt Q8IY84)
[30] = system: Tyrosine-protein kinase ABL1 (Homo sapiens), P00519 [Q252H]
[31] = target: RAF proto-oncogene serine/threonine-protein kinase (Homo sapiens) (UniProt P04049)
[32] = target: Phosphatidylinositol 4,5-bisphosphate 3-kinase catalytic subunit beta isoform (Homo sapiens) (UniProt P42338)
[33] = target: Mitogen-activated protein kinase kinase kinase 20 (Homo sapiens) (UniProt Q9NYL2)
[34] = system: Tyrosine-protein kinase ABL1 (Homo sapiens), P00519 [F317L]
[35] = target: Calcium/calmodulin-dependent protein kinase type 1B (Homo sapiens) (UniProt Q6P2M8)
[36] = system: Epidermal growth factor receptor (Homo sapiens), P00533 [L861Q]
[37] = target: Serine/threonine-protein kinase 4 (Homo sapiens) (UniProt Q13043)
[38] = target: Receptor-interacting serine/threonine-protein kinase 2 (Homo sapiens) (UniProt O43353)
[39] = target: Calcium/calmodulin-dependent protein kinase kinase 1 (Homo sapiens) (UniProt Q8N5S9)
Sequence of Calcium/calmodulin-dependent protein kinase kinase 1 (Homo sapiens) (Q8N5S9 whole entry, looked up, canonical isoform): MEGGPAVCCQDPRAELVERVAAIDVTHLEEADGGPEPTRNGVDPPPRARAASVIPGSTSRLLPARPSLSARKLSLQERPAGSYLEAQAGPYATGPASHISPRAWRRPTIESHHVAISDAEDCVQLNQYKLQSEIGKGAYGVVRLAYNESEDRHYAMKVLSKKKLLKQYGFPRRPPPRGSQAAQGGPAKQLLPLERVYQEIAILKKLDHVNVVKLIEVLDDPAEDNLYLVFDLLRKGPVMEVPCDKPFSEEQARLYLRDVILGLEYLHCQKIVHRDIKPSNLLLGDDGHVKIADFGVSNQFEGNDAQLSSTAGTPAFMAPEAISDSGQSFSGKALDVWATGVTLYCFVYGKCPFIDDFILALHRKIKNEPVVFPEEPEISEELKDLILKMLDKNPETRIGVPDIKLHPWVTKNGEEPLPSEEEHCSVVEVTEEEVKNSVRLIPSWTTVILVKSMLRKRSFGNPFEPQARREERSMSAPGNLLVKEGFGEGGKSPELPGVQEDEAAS

[40] = target: Phosphatidylinositol 4,5-bisphosphate 3-kinase catalytic subunit gamma isoform (Homo sapiens) (UniProt P48736)
[41] = target: Calcium/calmodulin-dependent protein kinase type II subunit gamma (Homo sapiens) (UniProt Q13555)
[42] = target: Ephrin type-A receptor 8 (Homo sapiens) (UniProt P29322)
[43] = target: Ribosomal protein S6 kinase alpha-6 (Homo sapiens) (UniProt Q9UK32)
[44] = target: Serine/threonine-protein kinase WNK4 (Homo sapiens) (UniProt Q96J92)
[45] = target: Serine/threonine-protein kinase Sgk1 (Homo sapiens) (UniProt O00141)

Measured: residual activity

CC(=O)N1CCC(c2ccc(C(=O)NC3=NCCN3)cc2C(F)(F)F)CC1 [BI 0054]
inactive: [1] 100% | [2] 100% | [3] 82% | [4] 100% | [5] 91% | [6] 100% | [7] 100% | [8] 100% | [9] 100% | [10] 100% | [11] 89% | [12] 100% | [13] 100% | [14] 100% | [15] 100% | [16] 100% | [17] 100% | [18] 88% | [19] 76% | [20] 100% | [21] 100% | [22] 100% | [23] 84% | [24] 78% | [25] 91% | [26] 99% | [27] 89% | [28] 100% | [29] 100% | [30] 88% | [31] 100% | [32] 100% | [33] 88% | [34] 95% | [35] 88% | [36] 100% | [37] 100% | [38] 100% | [39] 100% | [40] 100% | [41] 100% | [42] 93% | [43] 98% | [44] 100% | [45] 100%

CC(=O)N1CCC(c2ccc(C(=O)NC(=N)N)cc2C(F)(F)F)CC1 [BI 9627]
inactive: [1] 100% | [2] 100% | [3] 100% | [4] 100% | [5] 81% | [6] 97% | [7] 100% | [8] 100% | [9] 100% | [10] 100% | [11] 80% | [12] 100% | [13] 100% | [14] 100% | [15] 92% | [16] 100% | [17] 100% | [18] 100% | [19] 92% | [20] 100% | [21] 100% | [22] 100% | [23] 100% | [24] 100% | [25] 100% | [26] 100% | [27] 93% | [28] 100% | [29] 100% | [30] 79% | [31] 100% | [32] 100% | [33] 100% | [34] 92% | [35] 100% | [36] 91% | [37] 98% | [38] 100% | [39] 100% | [40] 100% | [41] 100% | [42] 100% | [43] 100% | [44] 100% | [45] 100%
